Reference: PubChem BioAssay AID1845208 (Molecular Pharmacology Branch, DTP, NCI, 2023)

System: NCI-H196 SCLC complex tumor spheroid viability
Assay: Anticancer human tumor NCI-H196 cell line growth inhibition;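 note: spheroids exposed to compounds for 7 days before readout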;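 for viability, T/C: 100% = DMSO vehicle control wells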
Conditions: for IC50: curve of first compound; for viability, T/C: stronger effect = lower value
Text: Multicellular complex tumor spheroid response to DNA repair inhibitors in combination with DNA-damaging drugs
This study explores the anticancer activities of DNA-damaging drugs and inhibitors of DNA damage repair, both as single agents and in combinations. Complex tumor spheroids comprised of malignant cells, endothelial cells and mesenchymal stem cells served as an in vitro model for human solid tumors. This model system incorporates physiologically relevant features and patient-derived or established malignant cell lines with clinically relevant genetic alterations from many tumor types. Twenty-six patient-derived or established malignant cell lines were evaluated representing sarcoma, melanoma, small cell lung cancer (SCLC), non-small cell lung cancer (NSCLC), as well as bladder, ovarian and pancreatic cancers. The concentration ranges selected for each drug and investigational agent were based upon clinically achievable concentrations if the clinical Cmax of the agent was known.
Compounds. The drugs and compounds olaparib (NSC753686), talazoparib (NSC767125), berzosertib (NSC777718), elimusertib (NSC800525), nedisertib (NSC802822), VX-984 (NSC792969), AZD-1390 (NSC803789), temozolomide (NSC362856), topotecan (NSC609699), trabectedin (NSC813783), staurosporine (NSC755774), and gemcitabine (NSC613327) were obtained from the National Cancer Institute (NCI) Developmental Therapeutics Program Chemical Repository. The FDA-approved anticancer drug set is available from the Developmental Therapeutics Program at https://dtp.cancer.gov/organization/dscb/obtaining/available_plates.htm. […] The stock solutions were prepared in dimethyl sulfoxide (DMSO, Sigma-Aldrich, St. Louis, MO, cat. D2650) at 400-fold the tested concentration and stored at -70 degrees C. Prior to their use, the stock solutions were diluted in fresh medium and the final DMSO concentration in the assay was 0.25% (v/v). All drugs and investigational agents were tested over a range starting from a high concentration at or near the clinical Cmax and decreasing in half-log increments. If the clinical Cmax for an agent had not been determined, the highest concentration tested was 10 microM.
Cell Lines. The patient-derived cancer cell (PDC) lines: 156681-154-R-J1-PDC, 283228-195-R-J1-PDC, 287954-098-R-J1-PDC, 292921-168-R-J2-PDC, 349418-098-R-PDC, 425362-245-T-J1-PDC, 556581-035-R-J1-PDC, and BL0293-F563-PDC were received from the NCI Patient-Derived Models Repository (PDMR, https://pdmr.cancer.gov). The established cell lines HS-SY-2 (RRID:CVCL_8719), MPNST, and SYO-1 (RRID:CVCL_7146) were obtained from the Sloan Kettering Institute. The alveolar soft parts sarcoma cell line ASPS-1 (RRID:CVCL_S738) was established at the NCI and grown from internal seed stocks. The following established cell lines were purchased from the American Type Culture Collection (ATCC, Manassas, VA): G-401 (ATCC, cat. CRL-1441, RRID:CVCL_0270), SW982 (ATCC, cat. HTB-93, RRID:CVCL_1734), VA-ES-BJ (ATCC, cat. CRL-2138, RRID:CVCL_1785), NCI-H719 (ATCC, cat. CRL-5837, RRID:CVCL_1582), NCI-H196 (ATCC, cat. CRL-5823, RRID:CVCL_1509), NCI-H841 (ATCC, cat. CRL-5845, RRID:CVCL_1595), NCI-H1618 (ATCC, cat. CRL-5879, RRID:CVCL_1480), NCI-H1876 (ATCC, cat. CRL-5902, RRID:CVCL_1503), DMS 114 (ATCC, cat. CRL-2066; RRID:CVCL_1174), NCI-H211 (ATCC, cat. CRL-5824; RRID:CVCL_1529), and SW 1271 (ATCC, cat. CRL-2177, RRID:CVCL_1716). The small cell lung cancer cell line COR-L88 was purchased from Sigma-Aldrich (cat. 92031917-1VL, RRID:CVCL_1141). The non-small cell lung cancer cell lines NCI-H226 (RRID:CVCL_1544) and NCI-H322M (RRID:CVCL_1557) were established at the NCI and grown from internal seed stocks. Pooled donor human umbilical vein endothelial cells (HUVEC, Lonza, cat. CC-2519) and human mesenchymal stem cells (hMSC, Lonza, cat. PT-2501) were purchased from Lonza (Walkersville, MD).
Cell Culture. All cells were maintained in an incubator at 37 degrees C and 5% CO2 with 95% humidity. […]

[1] = second compound 0.003 µM, first compound 0.0316 µM
[2] = second compound 0.003 µM, first compound 0.1 µM
[3] = second compound 0.003 µM, first compound 0.316 µM
[4] = second compound 0.003 µM, first compound 1 µM
[5] = second compound 0.003 µM, first compound 3.16 µM
[6] = second compound 0.003 µM, first compound 10 µM
[7] = second compound 0.00949 µM, first compound 0.0316 µM
[8] = second compound 0.00949 µM, first compound 0.1 µM
[9] = second compound 0.00949 µM, first compound 0.316 µM
[10] = second compound 0.00949 µM, first compound 1 µM
[11] = second compound 0.00949 µM, first compound 3.16 µM
[12] = second compound 0.00949 µM, first compound 10 µM
[13] = second compound 0.03 µM, first compound 0.0316 µM
[14] = second compound 0.03 µM, first compound 0.1 µM
[15] = second compound 0.03 µM, first compound 0.316 µM
[16] = second compound 0.03 µM, first compound 1 µM
[17] = second compound 0.03 µM, first compound 3.16 µM
[18] = second compound 0.03 µM, first compound 10 µM
[19] = second compound 0.0949 µM, first compound 0.0316 µM
[20] = second compound 0.0949 µM, first compound 0.1 µM
[21] = second compound 0.0949 µM, first compound 0.316 µM
[22] = second compound 0.0949 µM, first compound 1 µM
[23] = second compound 0.0949 µM, first compound 3.16 µM
[24] = second compound 0.0949 µM, first compound 10 µM
[25] = second compound 0.3 µM, first compound 0.0316 µM
[26] = second compound 0.3 µM, first compound 0.1 µM
[27] = second compound 0.3 µM, first compound 0.316 µM
[28] = second compound 0.3 µM, first compound 1 µM
[29] = second compound 0.3 µM, first compound 3.16 µM
[30] = second compound 0.3 µM, first compound 10 µM

Structure (SMILES): CC1COCCN1c1cc(-c2ccnn2C)c2ccnc(-c3ccn[nH]3)c2n1 (stereo not given) + CC[C@@]1(O)C(=O)OCc2c1cc1n(c2=O)Cc2cc3c(CN(C)C)c(O)ccc3nc2-1
- IC50 (second compound 0.003 µM): 4.08 µM
- IC50 (second compound 0.00949 µM): 2.26 µM
- IC50 (second compound 0.03 µM): 4.78 µM
- IC50 (second compound 0.0949 µM): 4.15 µM
- IC50 (second compound 0.3 µM): 0.334 µM
- viability, T/C [1]: 83%
- viability, T/C [2]: 75.1%
- viability, T/C [3]: 68.1%
- viability, T/C [4]: 57%
- viability, T/C [5]: 50.6%
- viability, T/C [6]: 47.3%
- viability, T/C [7]: 75.4%
- viability, T/C [8]: 69.9%
- viability, T/C [9]: 67%
- viability, T/C [10]: 51.4%
- viability, T/C [11]: 52%
- viability, T/C [12]: 45%
- viability, T/C [13]: 70.8%
- viability, T/C [14]: 64.9%
- viability, T/C [15]: 60.9%
- viability, T/C [16]: 57.6%
- viability, T/C [17]: 50.2%
- viability, T/C [18]: 47.6%
- viability, T/C [19]: 62.8%
- viability, T/C [20]: 61.5%
- viability, T/C [21]: 61.7%
- viability, T/C [22]: 57.1%
- viability, T/C [23]: 50.7%
- viability, T/C [24]: 44.3%
- viability, T/C [25]: 55.9%
- viability, T/C [26]: 51.7%
- viability, T/C [27]: 48.4%
- viability, T/C [28]: 49.1%
- viability, T/C [29]: 43.4%
- viability, T/C [30]: 38.5%

Structure (SMILES): COc1cc(C)[nH]c(=O)c1CN1CCc2c(Cl)cc(C(OC)C3COC3)c(Cl)c2C1=O (stereo not given) + CC[C@@]1(O)C(=O)OCc2c1cc1n(c2=O)Cc2cc3c(CN(C)C)c(O)ccc3nc2-1
- IC50 (second compound 0.003 µM): > 10 µM
- IC50 (second compound 0.00949 µM): > 10 µM
- IC50 (second compound 0.03 µM): > 10 µM
- IC50 (second compound 0.0949 µM): > 10 µM
- IC50 (second compound 0.3 µM): > 10 µM
- viability, T/C [1]: 108%
- viability, T/C [2]: 105%
- viability, T/C [3]: 99.9%
- viability, T/C [4]: 101%
- viability, T/C [5]: 103%
- viability, T/C [6]: 97.8%
- viability, T/C [7]: 102%
- viability, T/C [8]: 98.6%
- viability, T/C [9]: 91.5%
- viability, T/C [10]: 93.3%
- viability, T/C [11]: 99.6%
- viability, T/C [12]: 106%
- viability, T/C [13]: 99.3%
- viability, T/C [14]: 93.5%
- viability, T/C [15]: 97.5%
- viability, T/C [16]: 89.2%
- viability, T/C [17]: 95.7%
- viability, T/C [18]: 99.3%
- viability, T/C [19]: 106%
- viability, T/C [20]: 109%
- viability, T/C [21]: 99.8%
- viability, T/C [22]: 102%
- viability, T/C [23]: 94.2%
- viability, T/C [24]: 106%
- viability, T/C [25]: 104%
- viability, T/C [26]: 101%
- viability, T/C [27]: 99.8%
- viability, T/C [28]: 102%
- viability, T/C [29]: 95.8%
- viability, T/C [30]: 88.7%

Structure (SMILES): Cc1cc(C)c(CNC(=O)c2cc(-c3ccc(CN4CCOCC4)cc3)cc3c2cnn3C2CCCC2)c(=O)[nH]1 + CC[C@@]1(O)C(=O)OCc2c1cc1n(c2=O)Cc2cc3c(CN(C)C)c(O)ccc3nc2-1
- IC50 (second compound 0.003 µM): > 10 µM
- IC50 (second compound 0.00949 µM): > 10 µM
- IC50 (second compound 0.03 µM): > 10 µM
- IC50 (second compound 0.0949 µM): > 10 µM
- IC50 (second compound 0.3 µM): > 10 µM
- viability, T/C [1]: 99.4%
- viability, T/C [2]: 94.9%
- viability, T/C [3]: 102%
- viability, T/C [4]: 95.6%
- viability, T/C [5]: 101%
- viability, T/C [6]: 104%
- viability, T/C [7]: 96.5%
- viability, T/C [8]: 105%
- viability, T/C [9]: 99.9%
- viability, T/C [10]: 88.7%
- viability, T/C [11]: 94.7%
- viability, T/C [12]: 96.5%
- viability, T/C [13]: 91.8%
- viability, T/C [14]: 96.1%
- viability, T/C [15]: 98.4%
- viability, T/C [16]: 93%
- viability, T/C [17]: 97.5%
- viability, T/C [18]: 112%
- viability, T/C [19]: 102%
- viability, T/C [20]: 101%
- viability, T/C [21]: 108%
- viability, T/C [22]: 98.5%
- viability, T/C [23]: 97%
- viability, T/C [24]: 98.6%
- viability, T/C [25]: 95.6%
- viability, T/C [26]: 87.7%
- viability, T/C [27]: 86.1%
- viability, T/C [28]: 87.9%
- viability, T/C [29]: 79.9%
- viability, T/C [30]: 86.9%

Structure (SMILES): [2H]c1nc(C)nc([2H])c1-c1cc(NC[C@@H](C)c2cccc3c(C(=O)NC)ccnc23)ncn1 + CC[C@@]1(O)C(=O)OCc2c1cc1n(c2=O)Cc2cc3c(CN(C)C)c(O)ccc3nc2-1
- IC50 (second compound 0.003 µM): > 10 µM
- IC50 (second compound 0.00949 µM): > 10 µM
- IC50 (second compound 0.03 µM): > 10 µM
- IC50 (second compound 0.0949 µM): > 10 µM
- IC50 (second compound 0.3 µM): > 10 µM
- viability, T/C [1]: 103%
- viability, T/C [2]: 104%
- viability, T/C [3]: 92.5%
- viability, T/C [4]: 97.2%
- viability, T/C [5]: 106%
- viability, T/C [6]: 100%
- viability, T/C [7]: 100%
- viability, T/C [8]: 96.5%
- viability, T/C [9]: 91.8%
- viability, T/C [10]: 95.5%
- viability, T/C [11]: 99.7%
- viability, T/C [12]: 100%
- viability, T/C [13]: 96.8%
- viability, T/C [14]: 102%
- viability, T/C [15]: 95.4%
- viability, T/C [16]: 93.4%
- viability, T/C [17]: 95.5%
- viability, T/C [18]: 94.6%
- viability, T/C [19]: 99.4%
- viability, T/C [20]: 102%
- viability, T/C [21]: 107%
- viability, T/C [22]: 102%
- viability, T/C [23]: 100%
- viability, T/C [24]: 102%
- viability, T/C [25]: 109%
- viability, T/C [26]: 103%
- viability, T/C [27]: 94.8%
- viability, T/C [28]: 105%
- viability, T/C [29]: 104%
- viability, T/C [30]: 100%
